# Where two headings read alike, the source gives them in different places.
# T1: AT1R (Homo sapiens, UniProt P30556)
# T1 construct: expressed in transfected cells; host or cells: HEK293T
# T1 sequence (P30556 1-359): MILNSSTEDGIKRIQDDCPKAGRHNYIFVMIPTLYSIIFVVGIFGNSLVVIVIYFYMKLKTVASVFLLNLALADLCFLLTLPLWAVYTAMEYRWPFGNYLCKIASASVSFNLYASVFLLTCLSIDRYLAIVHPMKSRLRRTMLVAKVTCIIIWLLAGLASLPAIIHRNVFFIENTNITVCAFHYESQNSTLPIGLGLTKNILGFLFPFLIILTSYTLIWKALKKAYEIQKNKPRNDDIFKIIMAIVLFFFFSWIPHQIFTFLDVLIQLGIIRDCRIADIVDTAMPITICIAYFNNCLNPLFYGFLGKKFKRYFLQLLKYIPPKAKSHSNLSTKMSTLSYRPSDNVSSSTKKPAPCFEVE
# T2: angiotensin II type 1 receptor (UniProt P30556 1-359)
# T2 sequence (looked up): T1 sequence (P30556 1-359)
# T3: AT1R-GFP (UniProt P30556 1-359)
# T3 sequence (looked up): T1 sequence (P30556 1-359)
# B1: angiotensin-(1-7) (peptide)
# peptide: DRVYIHP
# notes: heptapeptide angiotensin-(1-7), cut from AngII by ACE2 or from AngI by endopeptidases; printed in three-letter code; also called Ang-(1-7); Ang1-7
# Key:
# [1] = system: isoproterenol-induced cardiac hypertrophy; assay: Isoproterenol-induced cardiac hypertrophy in rats (HW/BW ratio, left ventricular wall thickness); assay type: in vivo, Wistar rats; details: 7 days
# Description: (§1) The isoproterenol-induced cardiac hypertrophy experimental model was chosen aiming to avoid any involvement of the RAS, as it is known that other models such as pressure-overload, SHR, or mRen2 involve RAS components[50],[60],[61]. Cardiac hypertrophy was induced in male, 6 weeks-old Wistar rats by administration of Isoproterenol [(Iso) 2 mg/kg per day, i.p. diluted in saline, for 7 days]. All experimental protocols were performed in accordance with the Brazilian Council for Control of Animal Experimentation - “Conselho Nacional de Controle de Experimentação Animal” (CONCEA), Brazil; and approved by the Animal Ethical Committee from the Ribeirão Preto Medical School, University of São Paulo (CEUA).
# Rats receiving Iso were randomly submitted to treatment for 7 days with either vehicle, Ang-(1-7) [24 μg/kg per hour, via ALZET® osmotic minipumps (Durect, Cupertino, CA, USA)], Ang-(1-7) plus Losartan (10 mg/kg per day orally), Ang-(1-7) plus A779 (744 μg/kg per day i.p.), or Ang-(1-7) plus Losartan plus A779 (same doses as described). Doses and administration methods of drugs were based in previously published literature[62]–[66].
# Cardiac hypertrophy was confirmed by cardiac mass and histomorphometric analyses. To determine cardiac mass, hearts were removed, dried and weighted. Heart weight (HW) was normalized by the body weight (BW) (HW/BW*1000). For histomorphometric analysis, hearts were cut transversely, fixed in paraformaldehyde (4%) for 24 hours, and kept in ethanol (70%) until dehydration, which consisted in sequential washes with 70, 80, 90 and 100% ethanol. Samples were cleared in xylene and embedded in paraffin. Transversal sections (6 µm) were obtained from the cardiac samples at intervals of 40 µm and stained with hematoxylin and eosin. Images were captured using an Olympus BK 50 microscope (Olympus Corporation of the Americas, Center Valley, PA, USA) equipped with a SPOT RT3 digital camera (Diagnostic Instruments, Inc., Sterling Heights, MI, USA) and measured with ImageJ software (NIH, USA).
# AT1R [2] = biological target: T1, AT1R; assay: Competition binding assay against [3H]AngII in whole HEK293T cells transiently expressing the AT1R
# Description: (§2) HEK293T cells were cultured in DMEM supplemented with 10% heat-inactivated fetal bovine serum and 100 U/mL penicillin/streptomycin at 37 °C under 5% CO2. Cells were seeded in 100-mm dishes and 48 hours before the experiments, transiently transfected with the AT1R (alone or in combination with BRET-based biosensors). Transient transfections were performed using 25 kDa linear polyethylenimine (PEI – Polysciences, Warrington, PA, USA) at a ratio of 3:1 PEI/DNA. The total amount of transfected DNA was kept constant (10 μg/dish) by the addition of salmon sperm DNA.
# Binding assays were performed in whole HEK293T cells at 48 hours after transfection. Twenty-four hours before the experiment, transfected cells were transferred to 24-well plates, treated with poly-L-lysine, and then incubated overnight at 37 °C, in a 5% CO2 environment. […] Samples were collected and mixed with 3 mL of scintillation liquid, and radioactivity was measured using a Liquid Scintillation Counter (Packard Tri-Carb 2100TR – PerkinElmer).
# AT1R [3] = biological target: T1, AT1R; assay: BRET-based biosensor assay of Gq activation (Gαq-RLucII / Gγ1-GFP10) in HEK293T cells expressing AT1R; assay type: cell-based
# Description: as §2
# (§3) HEK293T cells transiently expressing the AT1R (or AT1R-GFP) and BRET-based biosensors (Gαq-RLucII or Gαi3-RLucII, Gβ1 and Gγ1-GFP10; RLucII-β-arr1-GFP10; RLucII-β-arr2-GFP10; β-arr1-RLucII; β-arr2-RLucII) were washed once with PBS, detached, and seeded in 96-well white plates (OptiPlate – PerkinElmer, Waltham, MA, USA). Following agonist stimulation, cells were incubated at 37 °C and the luciferase substrate (coelenterazine H for BRET1 or coelenterazine 400a for BRET2 – Biotium, Hayward, CA, USA) was added 5 min before reading BRET in a Victor^TM X Light Luminescence microplate reader (PerkinElmer) equipped with different donor/acceptor emission filter sets. […]
# AT1R [4] = biological target: T1, AT1R; assay: Intracellular calcium mobilization assay (FLIPR Calcium 5) in HEK293T cells expressing AT1R; assay type: cell-based
# Description: Cells were seeded in 100-mm dishes and 48 hours before the experiments, transiently transfected with the AT1R (alone or in combination with BRET-based biosensors). Transient transfections were performed using 25 kDa linear polyethylenimine (PEI – Polysciences, Warrington, PA, USA) at a ratio of 3:1 PEI/DNA. The total amount of transfected DNA was kept constant (10 μg/dish) by the addition of salmon sperm DNA. Twenty-four hours after transfection, HEK293T cells were washed once with PBS, detached, and seeded in 96-well clear-bottom black plates (Cellstar – Greiner Bio-One, Monroe, NC, USA) precoated with poly-L-lysine (Sigma-Aldrich, St. Louis, MO, USA). Cells were cultured in supplemented DMEM without phenol red (Gibco) at a density of 50,000 cells/well for an additional 24-hour period. […] To provide a baseline level, fluorescence was recorded every 2 seconds during 16 seconds. Following agonist stimulation, fluorescence continued to be recorded every 2 seconds for 90 seconds.
# AT1R [5] = biological target: T1, AT1R; assay: BRET-based biosensor assay of Gi3 activation in HEK293T cells expressing AT1R; assay type: cell-based
# Description: as §2, §3
# AT1R [6] = assay: BRET assay of β-arrestin 1 recruitment to AT1R-GFP (β-arr1-RLucII); assay type: cell-based; details: for β-arr1 recruitment Emax (%): percentage of the maximum values obtained for AngII
# Description: as §2
# (§4) HEK293T cells transiently expressing the AT1R (or AT1R-GFP) and BRET-based biosensors (Gαq-RLucII or Gαi3-RLucII, Gβ1 and Gγ1-GFP10; RLucII-β-arr1-GFP10; RLucII-β-arr2-GFP10; β-arr1-RLucII; β-arr2-RLucII) were washed once with PBS, detached, and seeded in 96-well white plates (OptiPlate – PerkinElmer, Waltham, MA, USA). Following agonist stimulation, cells were incubated at 37 °C and the luciferase substrate (coelenterazine H for BRET1 or coelenterazine 400a for BRET2 – Biotium, Hayward, CA, USA) was added 5 min before reading BRET in a Victor^TM X Light Luminescence microplate reader (PerkinElmer) equipped with different donor/acceptor emission filter sets. The BRET signal was determined as the ratio of light emitted by fluorescently-labeled biosensors, detected with energy acceptor filters (530 ± 20 nm for BRET1 or 515 ± 20 nm for BRET2), and light emitted by RLucII-tagged biosensors, detected with energy donor filters (480 ± 20 nm for BRET[1] or 410 ± 40 nm for BRET2). The specific BRET signal was defined as the difference between the total BRET signals and the one obtained with RLucII alone.
# AT1R [7] = assay: BRET assay of β-arrestin 2 recruitment to AT1R-GFP (β-arr2-RLucII); assay type: cell-based; details: for β-arr2 recruitment Emax (%): percentage of the maximum values obtained for AngII
# Description: as §2, §4
# AT1R [8] = biological target: T1, AT1R; assay: Intramolecular BRET assay of β-arrestin 1 conformational changes (RLucII-β-arr1-GFP10); assay type: cell-based
# Description: (§5) Receptor promoted activation of β-arrestin results in a conformational rearrangement that can be monitored by BRET-based double brilliance biosensors assessing changes in BRET between RLucII and GFP10 fused respectively to the N- and C-termini of β-arrestins[35]–[37]. Therefore, to assess whether the recruitment of β-arrestins to the AT1R by Ang-(1-7) leads to activation, we monitored the agonist-promoted change in the intramolecular BRET.
# (§6) HEK293T cells were cultured in DMEM supplemented with 10% heat-inactivated fetal bovine serum and 100 U/mL penicillin/streptomycin at 37 °C under 5% CO2. […]
# as §3
# AT1R [9] = biological target: T1, AT1R; assay: Intramolecular BRET assay of β-arrestin 2 conformational changes (RLucII-β-arr2-GFP10); assay type: cell-based
# Description: as §5, §6, §3
# AT1R [10] = biological target: T1, AT1R; assay: ERK1/2 phosphorylation by Western blotting in cells transiently expressing the AT1R; assay type: cell-based; details: 1 μM, 2-30 minutes, compared to AngII
# Description: Cells transiently expressing the AT1R were seeded on 6-well plates in fully supplemented DMEM and kept at 37 °C. […] Cells were lysed with lysis buffer consisting of 10 mM Tris-HCl, pH 7.5, 150 mM NaCl, 1 mM EDTA, 1mM EGTA, 0.1% SDS, 1% Nonidet P-40 and the following protease inhibitors: 2 mM PMSF, 100 µg/mL SBTI, 10 µg/mL leupeptin, 100 µg/mL aprotinin, 10 mM benzamidin and 2 mM sodium orthovanadate. Following homogenization at 4 °C, during 30 minutes, cellular lysates were centrifuged for 15 minutes (18,000 × g) at 4 °C and total protein from the supernatants was quantified by the Bradford method (Bio-Rad, Hercules, CA). After that, 50 µg of total protein were resolved in SDS-PAGE, transferred to nitrocellulose membranes and Western blotting was performed against total ERK (tERK) and phosphorylated ERK (pERK) (both antibodies from Santa Cruz Biotechnology, Santa Cruz, CA, USA; and molecular size markers from ThermoFisher Scientific, Catalog Number 26610). Blots were captured with ImageQuant 350 (GE Healthcare, Piscataway, NJ, USA). Densitometric values obtained after analyses with ImageJ program (http://rsb.info.nhi.gov/ij/) were used to calculate a ratio pERK/tERK, and corresponding results were plotted using GraphPad software (GraphPad, San Diego, CA) as fold of increase over the basal value obtained with vehicle-treated control.
# [11] = system: isoproterenol-induced cardiac hypertrophy; assay: End-diastolic pressure (EDP) in rats with isoproterenol-induced cardiac hypertrophy; assay type: in vivo, Wistar rats; details: 24 μg/kg per hour, osmotic mini-pump, 7 days, concomitantly with isoproterenol
# Description: as §1
# Rats receiving Iso were randomly submitted to treatment for 7 days with either vehicle, Ang-(1-7) [24 μg/kg per hour, via ALZET® osmotic minipumps (Durect, Cupertino, CA, USA)], Ang-(1-7) plus Losartan (10 mg/kg per day orally), Ang-(1-7) plus A779 (744 μg/kg per day i.p.), or Ang-(1-7) plus Losartan plus A779 (same doses as described). […]
# Rats were anesthetized with isoflurane (5% for induction and 2–2.5% to maintain anesthesia). […] After stabilization, signals were continuously recorded using a pressure-volume conductance system (MPVS, Millar Instruments) connected to a Power Lab/4SP (ADI Instruments, Sydney, NSW, Australia) feeding the digital signal to an […].
# [12] = biological target: T2, angiotensin II type 1 receptor; assay: cell-based or functional assay
# AT1R-GFP = biological target: T3, AT1R-GFP; assay: cell-based or functional assay
# [13] = biological target: T2, angiotensin II type 1 receptor; assay: radioligand binding; competition against 0.5 nM [^3H]AngII on whole HEK293T cells transiently expressing AT1R; 24 h at 4 °C; 25 mM Tris-HCl pH 7.4, 5 mM MgCl2, 0.1% BSA, 100 μg/mL bacitracin; details: one partner purified
# [14] = 24 μg/kg per hour, osmotic mini-pump, concomitantly with isoproterenol
molecule,measurement,setting,value
"CCCCc1nc(Cl)c(CO)n1Cc1ccc(-c2ccccc2-c2nn[nH]n2)cc1 [Losartan, reference compound]","blockade of the effect of Ang-(1-7) on the cardiovascular parameters (HW/BW, wall thickness, EDP)","[1]; co-treatment with Ang-(1-7), 10 mg/kg per day orally",did not prevent the effect of Ang-(1-7)
"CC[C@H](C)[C@H](NC(=O)[C@H](Cc1ccc(O)cc1)NC(=O)[C@@H](NC(=O)[C@H](CCCNC(=N)N)NC(=O)[C@@H](N)CC(=O)O)C(C)C)C(=O)N[C@@H](Cc1c[nH]cn1)C(=O)N1CCC[C@H]1C(=O)O [Ang-(1-7), Asp-Arg-Val-Tyr-Ile-His-Pro]",Ki,"AT1R [2]; competition against 0.5 nM [3H]AngII, HEK293T cells expressing AT1R, mean ± SEM, read-out: Binding pKi (converted)",219 nM
same,Ki,"AT1R [2]; competition binding against [3H]AngII, read-out: affinity for the AT1R",~200 nM
same,Emax,AT1R [3]; HEK-293T,12.8%
same,"Gq activation (separation of Gαq-RLucII from Gγ1-GFP10), in words","AT1R [3]; any of the concentrations tested, HEK293T cells expressing AT1R",did not promote the separation of Gαq-RLucII from Gγ1-GFP10
same,Emax,"AT1R [4]; HEK-293T, read-out: Ca2+ mobilization Emax (%)",24.8%
same,"intracellular Ca2+ mobilization, in words","AT1R [4]; concentration-response curve, HEK293T cells expressing AT1R",only a weak increase in intracellular Ca^2+ levels
same,"Gi3 activation, in words",AT1R [5],did not trigger Gi3 activation
same,β-arr1 recruitment pEC50,"AT1R [6]; BRET, mean ± SEM",6.38 ± 0.14
same,β-arr1 recruitment Emax (%),AT1R [6],67.8%
same,β-arr1 recruitment Emax (%),AT1R [6]; listed as Ang1-7,~70%
same,β-arr2 recruitment pEC50,"AT1R [7]; BRET, mean ± SEM",6.56 ± 0.09
same,β-arr2 recruitment Emax (%),AT1R [7],87.7%
same,β-arr2 recruitment Emax (%),AT1R [7]; listed as Ang1-7,~90%
same,EC50,"AT1R [8]; intramolecular BRET, mean ± SEM, read-out: β-arr1 conf. changes pEC50 (converted)",245 nM
same,Emax,AT1R [8]; read-out: β-arr1 conf. changes Emax (%),69.1%
same,EC50,"AT1R [9]; intramolecular BRET, mean ± SEM, read-out: β-arr2 conf. changes pEC50 (converted)",1380 nM
same,Emax,AT1R [9]; read-out: β-arr2 conf. changes Emax (%),64.4%
same,ERK1/2 phosphorylation,AT1R [10],partial agonist resulting in lower and more transient activation
same,cardiac hypertrophy (left ventricular wall thickness),[1]; [14],partially blocked the development of cardiac hypertrophy
same,heart weight/body weight (HW/BW) ratio,[1]; [14],partially blocked
same,end-diastolic pressure (EDP),[11],completely prevented the increase in EDP
B1,"β-arrestin 1 conformational change (intramolecular BRET, RLucII-β-arr1-GFP10) in HEK293T cells expressing AT1R, pEC50",[12],6.61
same,"recruitment of β-arr1-RLucII to AT1R-GFP (BRET), pEC50 of the agonist",AT1R-GFP,6.38
same,pKi,[13],6.66
